Values quoted from earlier work as cited in publication PMC10766353, “Oral FXIIa inhibitor KV998086 suppresses FXIIa and single chain FXII mediated kallikrein kinin system activation” (Frontiers in Pharmacology, 2023).
Where two headings read alike, the source gives them in different places.

Columns and labels:
HAE attacks [1] = tested on: HAE attacks; set-up: method as in Craig et al., 2023; settings: six-month study, ref Craig et al., 2023
HAE attacks [2] = tested on: HAE attacks; set-up: method as in Banerji et al., 2018; settings: 26-week phase 3 study; ref Banerji et al., 2018

garadacimab: a monoclonal antibody that inhibits FXIIa
HAE attack reduction (HAE attacks [1]; monthly administration): 87% | patients attack free (HAE attacks [1]): 62%

B1: lanadelumab: monoclonal antibody PKa inhibitor (antibody, chains of the INN, looked up, V domains shown)
VH: EVQLLESGGGLVQPGGSLRLSCAASGFTFSHYIMMWVRQAPGKGLEWVSGIYSSGGITVYADSVKGRFTISRDNSKNTLYLQMNSLRAEDTAVYYCAYRRIGVPRRDEFDIWGQGTMVTVSS
VL: DIQMTQSPSTLSASVGDRVTITCRASQSISSWLAWYQQKPGKAPKLLIYKASTLESGVPSRFSGSGSGTEFTLTISSLQPDDFATYYCQQYNTYWTFGQGTKVEIK
HAE attack reduction (HAE attacks [2]): 87% | patients attack free (HAE attacks [2]): 44%
